Reference: patent publication US11965199B2, “21-hydroxylation of steroids” (EUROAPI, priority 2014, dated 2024)
Like-named read-outs stand apart in the source and are kept apart here.

Experiments:
bovine CYP21 [1] = target: T1, bovine CYP21 (Bos taurus, UniProt P00191); test: Whole cell biotransformation (21-hydroxylation) in E. coli C43(DE3); type: cell-based
T1 construct: lacking the hydrophobic anchor region, i.e. a truncation of 29 N-terminal amino acid residues; 6xHis (C); expressed in transfected cells
T1 sequence (P00191 with tags, fused parts or gaps): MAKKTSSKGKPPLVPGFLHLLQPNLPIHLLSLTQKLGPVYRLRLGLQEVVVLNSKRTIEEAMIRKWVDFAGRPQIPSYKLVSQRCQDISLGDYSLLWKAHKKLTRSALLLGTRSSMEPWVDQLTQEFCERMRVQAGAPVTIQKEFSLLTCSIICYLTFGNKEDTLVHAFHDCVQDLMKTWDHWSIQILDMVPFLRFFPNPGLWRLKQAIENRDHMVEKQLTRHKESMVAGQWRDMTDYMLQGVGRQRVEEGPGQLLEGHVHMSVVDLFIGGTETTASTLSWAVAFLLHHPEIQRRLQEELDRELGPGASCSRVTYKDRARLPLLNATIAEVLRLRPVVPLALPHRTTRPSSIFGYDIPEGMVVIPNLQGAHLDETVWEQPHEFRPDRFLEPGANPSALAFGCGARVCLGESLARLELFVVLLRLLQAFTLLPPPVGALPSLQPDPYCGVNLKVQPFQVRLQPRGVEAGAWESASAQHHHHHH

human CYP21 [2] = target: T2, human CYP21 (Homo sapiens, UniProt P08686); test: as above; type: cell-based; design: lacking the hydrophobic anchor region, i.e. a truncation of 29 N-terminal amino acid residues; 6xHis (C); expressed in transfected cells; host or cells: E. coli C43(DE3) transformed with pET17b-based bi-/tricistronic vectors (p21h_...) and pGro12
T2 sequence (P08686 with tags, fused parts or gaps): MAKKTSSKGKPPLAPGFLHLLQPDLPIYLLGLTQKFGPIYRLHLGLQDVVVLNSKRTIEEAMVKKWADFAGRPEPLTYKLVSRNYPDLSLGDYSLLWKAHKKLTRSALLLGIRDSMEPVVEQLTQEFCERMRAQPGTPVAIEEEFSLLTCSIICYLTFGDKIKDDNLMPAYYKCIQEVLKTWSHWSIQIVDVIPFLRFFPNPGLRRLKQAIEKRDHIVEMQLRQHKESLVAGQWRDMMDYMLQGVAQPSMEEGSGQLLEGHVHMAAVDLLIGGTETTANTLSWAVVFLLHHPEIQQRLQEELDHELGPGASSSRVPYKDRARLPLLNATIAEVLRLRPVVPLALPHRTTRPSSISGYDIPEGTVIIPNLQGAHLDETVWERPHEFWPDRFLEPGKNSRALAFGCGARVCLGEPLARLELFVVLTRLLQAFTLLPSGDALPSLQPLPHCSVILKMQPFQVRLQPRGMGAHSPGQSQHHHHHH

bovine CYP21 [3] = target: T1, bovine CYP21; test: In vitro substrate conversion with purified enzymes (reconstituted cytochrome P450 system); type: biochemical; settings: defined buffer, NADPH regeneration system, electron transfer proteins of Table 2
Procedure: (§1) Both enzymes were expressed in the E. coli strain C43(DE3) by coexpression of the E. coli chaperones GroEL/GroES encoded in the vector pGro12. These chaperones ensure a correct protein folding which is important for an incorporation of the heme prosthetic group. In FIG. 3 an SDS-PAGE and a CO difference spectrum of purified bovine CYP21 are shown. […] To determine the binding of medrane to both isozymes the binding constants (KD-values) were determined.
(§2) For an efficient substrate conversion, both isoforms require an electron transfer system which consists of two parts, the cytochrome P450 enzyme itself and one or two electron transfer proteins which are essential for a hydroxylation reaction. Without these transfer proteins, no reaction will take place.
(§3) For in vitro studies and a verification of a substrate conversion, all redox partners were purified.

human CYP21 [4] = target: T2, human CYP21; test: as above; type: biochemical; design: lacking the hydrophobic anchor region, i.e. a truncation of 29 N-terminal amino acid residues; 6xHis (C); made in house; host or cells: E. coli C43(DE3), co-expressing GroEL/GroES from pGro12; settings: defined buffer, NADPH regeneration system, electron transfer proteins of Table 2
Procedure: as §1, §2, §3

[5] = bovine CYP21 with redox partners, GroEL/GroES co-expressed
[6] = human CYP21 with redox partners, GroEL/GroES co-expressed

Compound | hydroxylation at position 21 (steroid conversion) (bovine CYP21 [1]) | hydroxylation at position 21 (steroid conversion) (human CYP21 [2]) | hydroxylation at position 21 (steroid conversion) (bovine CYP21 [1]; [5]) | hydroxylation at position 21 (steroid conversion) (human CYP21 [2]; [6]) | in vitro conversion of medrane to premedrol (bovine CYP21 [3]) | in vitro conversion of medrane to premedrol (human CYP21 [4])
CC(=O)[C@H]1CC[C@H]2[C@@H]3CC[C@H]4CC(=O)CC[C@]4(C)[C@H]3CC[C@]12C [5α-dihydroprogesterone] | able to hydroxylate | able to hydroxylate | – | – | – | –
CC(=O)[C@@]1(O)CC[C@H]2[C@@H]3C[C@H](C)C4=CC(=O)C=C[C@]4(C)[C@H]3[C@@H](O)C[C@@]21C [Deltamedrane, deltamedrane] | – | – | able to hydroxylate | able to hydroxylate | – | –
CC(=O)[C@@]1(O)CCC2C3C[C@H](C)C4=CC(=O)CC[C@]4(C)C3[C@@H](O)C[C@@]21C (stereo partly drawn) [Medrane, medrane] | – | – | able to hydroxylate | able to hydroxylate | very efficiently | very efficiently
CC(=O)[C@H]1CC[C@H]2[C@@H]3CCC4=CC(=O)CC[C@]4(C)[C@H]3CC[C@]12C [Progesterone, progesterone] | – | – | able to hydroxylate | able to hydroxylate | – | –
medroxyprogesterone | able to hydroxylate | able to hydroxylate | – | – | – | –
